Usually Kd stands for the equilibrium constant for the complex coming apart.

Each structure is given as a SMILES string.

For one experiment, the target named is T1, Hri2 (Schizosaccharomyces pombe, UniProt Q9UTE5).
T1 construct: MBP-tagged wild-type Hri2 expressed in E. coli, dephosphorylated with lambda phosphatase
T1 sequence (Q9UTE5 1-639): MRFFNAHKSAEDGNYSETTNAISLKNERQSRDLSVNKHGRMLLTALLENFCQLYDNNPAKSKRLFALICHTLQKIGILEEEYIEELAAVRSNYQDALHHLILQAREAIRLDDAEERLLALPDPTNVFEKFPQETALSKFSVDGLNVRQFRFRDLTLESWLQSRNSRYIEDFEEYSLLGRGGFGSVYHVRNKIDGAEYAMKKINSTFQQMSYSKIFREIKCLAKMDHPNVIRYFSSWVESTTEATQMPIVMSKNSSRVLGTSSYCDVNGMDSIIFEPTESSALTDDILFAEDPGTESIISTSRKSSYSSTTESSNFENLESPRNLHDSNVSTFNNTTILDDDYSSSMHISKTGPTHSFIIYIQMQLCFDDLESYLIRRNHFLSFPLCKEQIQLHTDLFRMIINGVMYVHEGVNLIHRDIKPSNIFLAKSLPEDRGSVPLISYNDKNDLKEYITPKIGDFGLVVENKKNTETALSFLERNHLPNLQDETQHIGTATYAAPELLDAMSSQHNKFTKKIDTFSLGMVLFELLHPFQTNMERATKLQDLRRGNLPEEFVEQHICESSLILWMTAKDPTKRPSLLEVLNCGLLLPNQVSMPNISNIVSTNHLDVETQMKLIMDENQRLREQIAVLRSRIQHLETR
Kind of experiment: differential absorbance spectral titration (Soret peak, […] nm) with purified protein. The experiment is classed as binding.

The target in experiment [1] is T2, Hri1 (heme-regulated inhibitor kinase 1) (Schizosaccharomyces pombe, UniProt O13889).
T2 construct: MBP-tagged wild-type Hri1 expressed in E. coli, dephosphorylated with lambda phosphatase
T2 sequence (O13889 1-704): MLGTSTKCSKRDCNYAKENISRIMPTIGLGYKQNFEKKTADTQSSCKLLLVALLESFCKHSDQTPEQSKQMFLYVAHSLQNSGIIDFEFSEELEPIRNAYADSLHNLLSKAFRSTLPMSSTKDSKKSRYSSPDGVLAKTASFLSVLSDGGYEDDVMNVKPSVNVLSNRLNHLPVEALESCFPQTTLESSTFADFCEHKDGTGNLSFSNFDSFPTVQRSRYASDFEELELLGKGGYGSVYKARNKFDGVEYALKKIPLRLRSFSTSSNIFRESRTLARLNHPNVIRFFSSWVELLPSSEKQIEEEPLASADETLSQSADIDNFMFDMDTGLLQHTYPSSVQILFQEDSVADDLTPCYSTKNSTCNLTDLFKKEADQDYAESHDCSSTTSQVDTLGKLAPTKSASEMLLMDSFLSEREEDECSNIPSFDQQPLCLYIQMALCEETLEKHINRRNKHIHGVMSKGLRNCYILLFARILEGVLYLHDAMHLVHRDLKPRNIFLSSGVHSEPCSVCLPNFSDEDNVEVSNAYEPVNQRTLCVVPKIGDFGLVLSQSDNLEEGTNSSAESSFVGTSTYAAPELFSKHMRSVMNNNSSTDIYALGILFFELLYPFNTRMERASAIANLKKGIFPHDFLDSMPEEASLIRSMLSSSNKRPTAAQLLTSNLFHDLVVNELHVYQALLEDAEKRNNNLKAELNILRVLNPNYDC
The experiment is described as above. In kind it is binding.

As to `C=CC1=C(C)C2=Cc3c(C=C)c(C)c4[n]3[Fe]([Cl])[n]3c(c(C)c(CCC(=O)O)c3=CC3=NC(=C4)C(C)=C3CCC(=O)O)=CC1=N2` [hemin], the figures for the Kd (on Hri2; in experiment [1]) were 1050 nM and 110 nM, respectively.

For the origin of these results see publication PMC12303383, “The heme-regulated inhibitor kinase Hri1 is activated in response to aminolevulinic acid deficiency in Schizosaccharomyces pombe” (PLOS Genetics, 2025).
